From US20180243465A1, “HEMOSTATIC MATERIAL” (BAXTER INTERNATIONAL INC., priority 2015, published 2018)
No end group written: not given here. PVA‑NB hydrogel particulates = not defined here

Key:
[1] = test system: whole blood; assay: Rotational thromboelastometry (ROTEM) of recalcified citrated whole blood; type: cell-based, human; conditions: for clotting time (CT) vs saline control / clot formation time (CFT) vs saline control: 1 mM; for clotting time (CT) vs saline control: FIG. 8A; for clot formation time (CFT) vs saline control: FIG. 8B; for clotting time (CT) as % of the physiological CT: whole blood
Source text: ROTEM (TEM Innovation, Germany) was applied to monitor the interactions of platelet-activating polymers and whole blood over time. ROTEM system contains an oscillating sensor pin that is immersed in a temperature-controlled cuvette containing the blood sample. Four measurements can be performed in parallel in the same device. Generally, coagulation of the citrated blood sample is initiated by re-calcification. The formation kinetics of a fibrin clot could be monitored mechanically and calculated by an integrated computer to the typical curves and numerical parameters.
Blood was collected from three un-medicated and healthy donors using minimal stasis from an antecubital vein through a 21-gauge needle. After discarding the first 3 ml, blood was collected in 3.5 ml tubes (Vacuette; Greiner Bio-One) containing 0.3 ml buffered 3.2% sodium citrate. The samples were kept on a pre-warming stage at 37° C. for at least 10 min prior to analysis and were processed within 3 h. ROTEM analysis of the whole blood sample was initiated by recalcification with the addition of 20 μl of CaCl2 (star-TEM®, 200 mM). Polymer solutions and/or polymer suspensions were added directly to the cuvette immediately after recalcification of the citrated blood and mixed by gently pipetting up and down as previously reported.^[21] The final reaction volume per ROTEM cuvette was 370 μl, consisting of 300 μl citrated whole blood, 20 μl CaCl2 and 50 μl polymer solution or polymer suspension.
We next studied the hemostatic efficacy of PVA-TRAP6 in comparison with TRAP6 and PVA-NB using rotational thromboelastometry (ROTEM),^[21, 22] which is a clinical diagnostic tool allowing in situ characterization of viscoelastic properties of blood clot during coagulation. […] Clotting time (CT) refers to the latency until the clot reaches a firmness of 2 mm while maximum clot firmness (MCF) refers to the maximum amplitude of the curve, which indicates the absolute strength of the clot.

[2] = test system: platelets; assay: FACS analysis of platelet activation (CD41/CD62p co-expression); type: cell-based, human
Procedure: The blood of two unmedicated and healthy donors was collected and stabilized by sodium citrate. […] Twenty microliter of TRAP6-C solution (14 mg mL^−1) and/or 20 μL of NaCl solution (0.9%) were added as the positive control and the negative control, respectively. The incubated mixture was mixed with 300 μL of 1% paraformaldehyde for 15 min at room temperature. After washing and centrifugation a double immuno-staining was performed using 20 μL of phycoerythrin (PE) labeled monoclonal antibody directed against CD41 and 20 μL of allophycocyanin (APC) labeled monoclonal antibody directed against CD62P. Isotype controls were incubated with mouse IgG antibodies conjugated with APC or PE dye, respectively (all antibodies were purchased from BD Biosciences, Heidelberg, Germany). After 30 min incubation at room temperature the activation state of the platelets was determined using fluorescence flow cytometry. Expression of the platelet activation marker CD62P and the constitutively present platelet marker CD41 were detected using a Beckmann Coulter Cytomics FC-500 equipped with Uniphase Argon ion laser, 488 nm, 20 mW output. Overall 100 000 platelets were measured per sample and analyzed with the Cytomics CXP software. The experiment was repeated twice.
We next utilized flow cytometry (FACS) to quantify the extent of platelet activation. Platelets can be distinguished from other blood cells by the constitutive expression of the surface antigen CD41, which recognizes the platelet membrane glycoprotein GpIIb which is non-covalently associated with GpIIIa (the integrin beta 3 chain) to form the GpIIb/IIIa complex. Importantly, the CD62p (P-selectin) membrane glycoprotein is exclusively expressed on activated platelets. The CD62p marker was used to identify the extent of activation in human platelets after incubation with the studied materials (PVA-TRAP6, TRAP6, PVA-NB, and NaCl).

[3] = test system: platelets; assay: Multiplate platelet aggregation assay in hirudinized whole blood; type: cell-based, human; conditions: for aggregation area: 0.1 mM TRAP6 equivalent, 6 min measurement
Procedure: The principle of Multiplate test is based on the fact that platelets become sticky upon activation, and thus prone to adhere and aggregate on the metal sensor wires in the Multiplate test cuvette. The sensor wires are made of highly conductive copper, which is silver-coated. As activated platelets adhere and aggregate on the sensor wires, the electrical resistance between the wires rises, which can be monitored in real time. For each measurement, 300 μL of saline and 300 μL of hirudinized whole blood was added sequentially to a Multiplate cuvette. After 3 min incubation at 37° C., 20 μL of sample solution was added and at the same time the program started to collect signals. The Multiplate device allows 4 measurements in parallel. Each measurement was performed for 6 min and in duplicate.
In order to quantify the extent of platelet activation, we utilized Multiplate assay to investigate the influence of PVA-TRAP6, TRAP6 and PVA-NB on platelet aggregation. The principle of this method is based on the fact that platelets become sticky upon activation, and thus prone to adhere and aggregate on the metal sensor wires in the Multiplate test cuvette. As activated platelets adhere and aggregate on the sensor wires, the electrical resistance between the wires rises, which can be continuously monitored. […] One key parameter of Multiplate assay is aggregation area (in Units), i.e. the area underneath the aggregation curve.

[4] = test system: C2C12 myoblasts
Procedure: Cytotoxicities of PVA, PVA-NB and PVA-TRAP6 macromer solutions were evaluated via MTT assay. C2C12 cells were cultured in Dulbecco's Modified Eagles Medium (DMEM) supplemented with 5% fetal calf serum (FCS), 1% L-Glutamine, 1% Penicillin/Streptomycin (all from Sigma-Aldrich, Austria). Macromer solutions with three concentrations (5%, 1% and 0.1%) were prepared in DMEM culture medium. C2C12 cells were then seeded in a 96-well plate at a density of 5×10^3 cells per well in 200 μL of culture medium. After 24 h incubation (37° C., 5% CO2), 100 μL of the respective macromer solutions were added to the cells in triplicates. After 24 h incubation, cells were washed twice with sterile PBS before the addition of 100 μL thiazolyl blue tetrazolium bromide (MTT) working solution (5 mg/mL in PBS). After 1 h incubation, the liquid was discarded and 100 μl of DMSO was added to dissolve the formazan crystals. Finally, the absorbance was measured at 540 nm using a microplate reader.

[5] = test system: platelets; conditions: from reference [12]; cited from earlier work

## PEG-TRAP6: PEG-10k-NHS reacted with the N-terminus of TRAP6, unreacted NHS groups blocked with glycine ({PEG 10 kDa}-SFLLRNPNC; also: unreacted NHS groups of PEG blocked with glycine) [reference compound]
[1]
  clotting time (CT) vs saline control: this effect was lost
  clot formation time (CFT) vs saline control: this effect was lost

## PVA-TRAP6-P: insoluble crosslinked PVA-NB hydrogel particulates surface-functionalized with TRAP6-Cys peptide (SFLLRNPNC(PVA‑NB hydrogel particulates); reading uncertain)
[1]; particulate suspension 10 wt % in saline
  clotting time (CT) as % of the physiological CT: ~50%
[2]; particulates
  platelet activation vs soluble TRAP6 control (FACS): comparable extent as soluble TRAP6 control
[2]; particulates, 15 min incubation, whole blood
  percentage of activated platelets (CD41+/CD62p+): ~55%

## PVA-TRAP6: water-soluble conjugate of cysteine-containing TRAP6 peptide (SFLLRNPNC) on PVA-norbornene backbone by thiol-ene photo-click conjugation (SFLLRNPNC(PVA‑norbornene 22 kDa))
[1]; 0.1 mM TRAP6 equivalent, compared with TRAP6 0.1 mM
  clotting time (CT): very comparable to that of TRAP6
[1]; 0.1 mM, compared with TRAP6 control
  maximum clot firmness (MCF): relatively less than that of TRAP6 control
[1]
  clotting time (CT) vs saline control: significantly shorten
  clot formation time (CFT) vs saline control: significantly shorten
[1]; 0.1% PVA-TRAP6 solution
  clotting time (CT) as % of the physiological CT: ~45%
[1]; peptide concentrations tested 0.01, 0.1, 1 mM, CT
  optimal hemostatic concentration: 0.1 mM
[3]; 0.1 mM
  platelet aggregation curve: comparable to that of TRAP6
[3]
  aggregation area: 130 U
[3]; 1 mM, FIG. 9A
  total platelet aggregation area: comparable to that of TRAP6
[2]; 1 mM, FIG. 9B
  platelet activation (CD41/CD62P co-expression): very similar level as TRAP6 control
[2]; 15 min incubation, 0.1 mM, soluble system
  CD41/CD62p co-expression (CD62p expression in CD41 positive cells): ~80%
[4]
  cytotoxicity (MTT assay): nontoxic

## SFLLRN [TRAP6, reference compound]
[1]
  clotting time (CT) vs saline control: significant decrease
  clot formation time (CFT) vs saline control: significant decrease
[1]; peptide concentrations 0.01, 0.1, 1 mM
  dose influence on CT: no significant dose influences
[5]
  effective TRAP6-concentration for platelet activation: 5 to 100 µM
[3]
  aggregation area: 147 U
